Tested on: skin of human subjects
Test: Acute primary skin patch test, single 48-hour application
Type: in vivo
Settings: positive control, 55 subjects completing study
Procedure: To determine the primary (acute) irritation potential of a test material after a single application to the skin of human subjects for 48 hours.
Test materials to be tested under occlusive conditions were placed on an 8-millimeter aluminum Finn Chamber® (Epitest Ltd. Oy, Tuusula, Finland) supported on Scanpor® Tape (Norgesplaster A/S, Kristiansand, Norway) or an 8-millimeter filter paper coated aluminum Finn Chamber® AQUA supported on a thin flexible transparent polyurethane rectangular film coated on one side with a medical grade acrylic adhesive, consistent with adhesive used in state-of-the-art hypoallergenic surgical tapes or a 7 mm IQ-ULTRA® closed cell system which is made of additive-free polyethylene plastic foam with a filter paper incorporated (It is supplied in units of 10 chambers on a hypoallergenic non woven adhesive tape; the width of the tape is 52 mm and the length is 118 mm) or other equivalents.
Test materials to be tested under semi-occlusive conditions were placed on a test strip with a Rayon/Polypropylene pad or on a 7.5 mm filter paper disc affixed to a strip of hypoallergenic tape (Johnson & Johnson 1 inch First Aid Cloth Tape). […]
Trained skin grading laboratory personnel removed the patch and evaluated the test sites.
In the event of an adverse reaction, the area of erythema and edema is measured. […]

## CCCCCCCCCCCCOS(=O)(=O)[O-].[Na+] [2.0% Sodium Lauryl Sulfate Solution, Sodium Lauryl Sulfate]
  subjects with a Grade 1 reaction: 16 subjects

Reference: patent publication US20240335382A1, “NANO- OR MICRO-EMULSION COMPOSITIONS AND METHODS OF USE THEREOF” (Nutraceutical Wellness, Inc., priority 2021, published 2024)
